These results are taken from patent US10945980B2, “Treatment for myopia” (The University of Newcastle, priority 2016, dated 2021).

What all share (assay type): in vivo, guinea pig (Cavia porcellus)
In experiment [1] the test system is form deprivation myopia in guinea pigs. Briefly: Intravitreal L-arginine in form deprivation (FD) myopia, 3 days diffuser wear. Here is the method: Fifty-seven pigmented guinea pigs (Cavia porcellus) were sourced from the University of Newcastle and housed as described in Example 1. Animals were provided with food and water ad libitum and the room temperature was maintained at 22° C. The University of Newcastle under Australian legislative requirements approved all procedures.
Animals wore classical form diffusers made of translucent moulded Perspex (0.8 mm thickness, 24% transmission) on their right eyes. Diffusers were mounted onto plastic washers backed with Velcro® and attached to mating Velcro® arcs which were affixed above and below the eye.
(§1) Animals were assigned to one of seven treatment groups (Table 1). From seven days of age, five of these groups were form deprived in the right eye for 3 days with a diffuser (two groups wore no diffusers and served as controls for form deprived animals). Six groups of animals were intravitreally injected with either L-arginine or physiological saline once per day, just before lights came on at 10 am. One group wore diffusers, but received no injection as a control. At ten days of age, cycloplegia was induced in all animals and refractive error and ocular components were measured. Two retinas, one a saline control and another that had been injected with the highest dose of L-arginine, were analysed by histochemistry for morphological markers of L-arginine induced toxicity.
To establish the size of the guinea pig vitreous, and thus the molarity of the substrate within the eye, ten vitreous chambers were extracted from ten eyes. The volume of the vitreous was 125 μl. Based on this, three drug doses of L-arginine were employed: low (0.4 mM), medium (2.2 mM) and high (non-toxic: 9.3 mM) (See Table 1). A 30 gauge Hamilton syringe was used to slowly inject into the vitreous through the temporal sclera of right eyes, approximately 2 mm posterior to the limbus. All injections were 10 μl of either physiological saline (0.9%) or L-arginine dissolved in saline (pH 7.4 for all injections).
(§2) Cycloplegia was induced as described in Example 1, and refractive error subsequently measured as described in Example 1.
Ocular length and axial components were also determined as described in Example 1.
The data presented are means±standard errors of the mean. All figures and statistics are based on the difference between the lens-wearing eye and the fellow non lens-wearing eye and are referred to as relative refractive error and relative ocular distances. Statistical comparisons between lens wearing groups were based on one way ANOVAs followed by Holm-Sidak post hoc tests to account for family-wise error. Correlations were based on Pearson's regression analysis. Statistical analysis used Prism®, Graph Pad Software, Inc. V 6.

For experiment [2], the system named is guinea pig eyes not form deprived. Put plainly: Intravitreal L-arginine in eyes not form deprived (control groups of Example 2). The note with it: 2.2 mM L-arginine vs vehicle, no FD.
Excerpt: as §1
To establish the size of the guinea pig vitreous, and thus the molarity of the substrate within the eye, ten vitreous chambers were extracted from ten eyes. The volume of the vitreous was 125 μl. Based on this, three drug doses of L-arginine were employed: low (0.4 mM), medium (2.2 mM) and high (non-toxic: 9.3 mM) (See Table 1). […]
as §2
Ocular length and axial components were also determined as described in Example 1. […]

Experiment [3] has as its system lens-induced myopia in guinea pigs. Briefly: Intravitreal L-arginine in lens-induced (−6D) myopia, 3 days. The note with it: 0.2 mM L-arginine daily intravitreal at 7, 8, 9 days of age, −6D lens 3 days; not significant p=0.169.
The subject of experiment [4] is form deprivation myopia in guinea pigs. Briefly: Oral (gavage) L-arginine in form deprivation myopia. An excerpt: Guinea pigs (pigmented variety, Cavia porcellus) were bred, housed, and raised as described in Example 1. The University of Newcastle Animal Care and ethics Committee approved all procedures.
Two experimental protocols were employed (Table 3). In Experiment 1, 12 animals wore a diffuser over one eye (form-deprivation, FD) for […]. This period reliably induces myopia in the deprived eye compared to the untreated fellow eye. Seven of these animals also concurrently received a single gavage of L-arginine (200 mg/kg/day) each day at 9:30 am while briefly anaesthetised. […]
At the end of the FD period, at 12 days of age (Experiment 1) or at […] (Experiment 2), after the morning gavage treatment, both eyes were cyclopleged and 1.25 hours later, refractive error was measured. […]
After cycloplegia was induced, refractive error was measured in each eye using streak retinoscopy as previously described (Howlett and McFadden, 2007; McFadden et al., 2004). The spherical equivalent was calculated as the average of the horizontal and vertical meridians (see Howlett and McFadden, 2006). Next, ocular length was measured using high frequency ultrasound (20 MHz) as previously described (McFadden et al, 2004). At least 20 traces were recorded for each eye and distances were averaged for at least 10 of these recordings. […]

With `N=C(N)NCCC[C@H](N)C(=O)O` [L-arginine], the “relative refractive error compared with animals that had no form deprivation” value in experiment [1] (FD 2.2 mM and FD 9.3 mM groups, daily intravitreal injection, 3 days FD) is reported as “not significantly different from animals that had no form deprivation”. Moreover, the “ocular length, shortening relative to FD NIL” value in experiment [1] (FD 9.3 mM (high dose, intravitreal) vs form deprivation only, p<0.001) was −484 μm. Further, the “vitreous chamber depth, difference FD 0 mM vs FD 9.3 mM” value in experiment [1] (FD + vehicle vs FD + 9.3 mM L-arginine, did not reach significance, p=0.12) turned out to be 215 μm. For the same compound, the “choroid thickness, FD 0 mM thinner than FD 9.3 mM” value in experiment [1] (FD + vehicle vs FD + 9.3 mM L-arginine, not significant, p=0.14) is listed as 31 μm. For the same compound, in experiment [1] (FD + vehicle vs FD + high dose L-arginine 9.3 mM intravitreal, p<0.001), the “ocular length, FD 0 mM greater than FD 9.3 mM” value turned out to be 403 μm. Besides, in experiment [1] (form deprivation only vs FD + 9.3 mM L-arginine intravitreal, p<0.001), the “vitreous chamber depth, FD NIL longer than FD 9.3 mM” value is 484 μm. The “choroid thickness, difference FD NIL vs FD 9.3 mM” value in experiment [1] (form deprivation only vs FD + 9.3 mM L-arginine intravitreal, p=0.03) was −39 μm. The “difference in relative refractive error between the two groups that were not form deprived” value in experiment [2] (daily 10 μl intravitreal injection for 3 days, p=0.46) is given as −0.2 D. Further, the “difference in ocular length between groups not form deprived” value in experiment [2] (intravitreal, p=0.44) stood at 83 μm. Also, the “interocular difference in refractive error (lens-wearing eye more hyperopic than fellow eye)” value in experiment [3] worked out at 2.00 D. In experiment [4] (Experiment 1: 200 mg/kg once daily gavage, 7 days FD, p=0.714), the “relative elongation (FD eye vs untreated eye)” value is 42±30 μm. Besides, the “eye lengths vs animals only fed water” value in experiment [4] (Experiment 2: 25 mg/kg twice daily gavage, 3 days FD, both the FD eye and the fellow eye) was “smaller eye lengths than animals only fed water”.
